This is an account of results in patent US9617289B2, “RSV antiviral compounds” (JANSSEN R&D IRELAND, priority 2012, dated 2017).

The experiment deals with rgRSV224 virus. Description: Antiviral activity: inhibition of rgRSV224 (GFP-expressing RSV) replication in HeLa cells. The class given is cell-based, respiratory syncytial virus. The settings on record: human respiratory syncytial virus, HeLa, 72 h. The procedure: Black 96-well clear-bottom microtiter plates (Corning, Amsterdam, The Netherlands) were filled in duplicate using a customized robot system with serial 4-fold dilutions of compound in a final volume of 50 μl culture medium [RPMI medium without phenol red, 10% FBS, 0.04% gentamycin (50 mg/ml) and 0.5% DMSO]. Then, 100 μl of a HeLa cell suspension (5×10^4 cells/ml) in culture medium was added to each well followed by the addition of 50 μl rgRSV224 (MOI=0.02) virus in culture medium using a multidrop dispenser (Thermo Scientific, Erembodegem, Belgium). rgRSV224 virus is an engineered virus that includes an additional GFP gene (Hallak et al, 2000) and was in-licensed from the NIH (Bethesda, Md., USA). Medium, virus- and mock-infected controls were included in each test. Cells were incubated at 37° C. in a 5% CO2 atmosphere. Three days post-virus exposure, viral replication was quantified by measuring GFP expression in the cells by a MSM laser microscope (Tibotec, Beerse, Belgium). The EC50 was defined as the 50% inhibitory concentration for GFP expression. In parallel, compounds were incubated for three days in a set of white 96-well microtitier plates (Corning) and the cytotoxicity of compounds in HeLa cells was determined by measuring the ATP content of the cells using the ATPlite kit (PerkinElmer, Zaventem, Belgium) according to the manufacturer's instructions. The CC50 was defined as the 50% concentration for cytotoxicity. SI is calculated as CC50/EC50.

Setting [1] is: read-out: pEC50, rgRSV224 (MOI=0.02) in HeLa cells, GFP expression three days post-virus exposure (converted).

Read-outs that look alike come from different tables or passages of the source. Where only a bound is given, the exact number is not on record here.

For the compound `N#CCCCn1c(CN2C(=O)C3(CN(C(=O)[C@@H](O)CO)C3)c3ccccc32)cc2cc(Cl)ccc21` (single isomer, unassigned) [Compound 129], the EC50 (read-out: RSV-wt_pEC50, rgRSV224 (MOI=0.02) in HeLa cells, GFP expression three days post-virus exposure) is 0.355 nM. With `CC(C)(C)OC(=O)N1CCC2(CC1)C(=O)N(Cc1cc3cc(Cl)ccc3n1CCCS(C)(=O)=O)c1cnccc12` [Compound 1, tert-butyl 1′-({5-chloro-1-[3-(methylsulfonyl)propyl]-1H-indol-2-yl}methyl)-2′-oxo-1′,2′-dihydro-1H-spiro [piperidine-4,3′-pyrrolo[2,3-c]pyridine]-1-carboxylate], under setting [1], the EC50 was 0.631 nM. For the compound `CS(=O)(=O)CCCn1c(CN2C(=O)C3(CCNCC3)c3ccncc32)cc2cc(Cl)ccc21` [Compound 2, 1′-({5-chloro-1-[3-(methylsulfonyl)propyl]-1H-indol-2-yl}methyl)spiro[piperidine-4,3′-pyrrolo[2,3-c]pyridin]-2′(1′H)-one], the EC50 under setting [1] is 50.1 nM. The same measure, in the same setting: next, `CS(=O)(=O)CCCn1c(CN2C(=O)C3(CCN(S(C)(=O)=O)CC3)c3ccncc32)cc2cc(Cl)ccc21` [Compound 3, 1′-({5-chloro-1-[3-(methylsulfonyl)propyl]-1H-indol-2-yl}methyl)-1-(methylsulfonyl)spiro[piperidine-4,3′-pyrrolo[2,3-c]pyridin]-2′(1′H)-one]: 0.0316 nM; `CC(C)(C)OC(=O)N1CC2(C1)C(=O)N(Cc1nc3cc(Cl)ccc3n1CCCS(C)(=O)=O)c1ccccc12` [Compound 4, tert-butyl 1′-({5-chloro-1-[3-(methylsulfonyl)propyl]-1H-benzimidazol-2-yl}methyl)-2′-oxo-1′,2′-dihydro-1H-spiro[azetidine-3,3′-indole]-1-carboxylate]: 0.0794 nM. The same measure, in the same setting: next, `CS(=O)(=O)CCCn1c(CN2C(=O)C3(CNC3)c3ccccc32)nc2cc(Cl)ccc21` [Compound 5, 1′-({5-chloro-1-[3-(methylsulfonyl)propyl]-1H-benzimidazol-2-yl}methyl)spiro[azetidine-3,3′-indol]-2′(1′H)-one]: 5.01 nM; `CC(C)(O)C(=O)N1CC2(C1)C(=O)N(Cc1nc3cc(Cl)ccc3n1CCCS(C)(=O)=O)c1ccccc12` [Compound 6, 1′-({5-chloro-1-[3-(methylsulfonyl)propyl]-1H-benzimidazol-2-yl}methyl)-1-(2-hydroxy-2-methylpropanoyl)spiro[azetidine-3,3′-indol]-2′(1′H)-one]: 0.501 nM. The same measure, in the same setting: next, `CS(=O)(=O)CCCn1c(CN2C(=O)C3(CN(c4cccnc4)C3)c3ccccc32)nc2cc(Cl)ccc21` [Compound 7, 1′-({5-chloro-1-[3-(methylsulfonyl)propyl]-1H-benzimidazol-2-yl}methyl)-1-(pyridin-3-yl)spiro[azetidine-3,3′-indol]-2′(1′H)-one]: 0.0251 nM; `CC(C)(O)CN1CC2(C1)C(=O)N(Cc1nc3cc(Cl)ccc3n1CCCS(C)(=O)=O)c1ccccc12` [Compound 8, 1′-({5-chloro-1-[3-(methylsulfonyl)propyl]-1H-benzimidazol-2-yl}methyl)-1-(2-hydroxy-2-methylpropyl)spiro[azetidine-3,3′-indol]-2′(1′H)-one]: 0.794 nM. Consider `CS(=O)(=O)CCCn1c(CN2C(=O)C3(CCN(S(=O)(=O)c4ccc5nccnc5c4)CC3)c3ccncc32)nc2cc(Cl)ccc21` [Compound 13, 1′-((5-chloro-1-(3-(methylsulfonyl)propyl)-1H-benzo[d]-imidazol-2-yl)methyl)-1-(quinoxalin-6-ylsulfonyl)spiro-[piperidine-4,3′-pyrrolo[2,3-c]pyridin]-2′(1′H)-one], for which the EC50 under setting [1] is 0.0501 nM.

With `CC(C)(C)OC(=O)N1CCC2(CC1)C(=O)N(Cc1nc3cc(Cl)ccc3n1CCCS(C)(=O)=O)c1cnccc12` [Compound 14, tert-butyl 1′-((5-chloro-1-(3-(methylsulfonyl)propyl)-1H-benzo[d]imidazol-2-yl)methyl)-2′-oxo-1′,2′-dihydrospiro-[piperidine-4,3′-pyrrolo[2,3-c]pyridine]-1-carboxylate], the EC50 under setting [1] is below 0.158 nM.

Take `CS(=O)(=O)CCCn1c(CN2C(=O)C3(CCN(c4ccc(Cl)nn4)CC3)c3ccccc32)nc2cc(Cl)ccc21` [Compound 15, 1-((5-chloro-1-(3-(methylsulfonyl)propyl)-1H-benzo[d]-imidazol-2-yl)methyl)-1′-(6-chloropyridazin-3-yl)spiro-[indoline-3,4′-piperidin]-2-one]: the EC50 under setting [1] was below 0.158 nM.

As for `CS(=O)(=O)CCCn1c(CN2C(=O)C3(CCN(S(=O)(=O)c4ccc5nccnc5c4)CC3)c3ccccc32)nc2cc(Cl)ccc21` [Compound 16, 1-((5-chloro-1-(3-(methylsulfonyl)propyl)-1H-benzo[d]-imidazol-2-yl)methyl)-1′-(quinoxalin-6-ylsulfonyl)spiro-[indoline-3,4′-piperidin]-2-one], the EC50 under setting [1] is below 0.158 nM. Still for that read-out and setting: next, `CC(C)(C)OC(=O)N1CCC2(CC1)C(=O)N(Cc1nc3cc(Br)ccc3n1CCCS(C)(=O)=O)c1ccccc12` [Compound 17, tert-butyl 1-((5-bromo-1-(3-(methylsulfonyl)propyl)-1H-benzo[d]imidazol-2-yl)methyl)-2-oxospiro[indoline-3,4′-piperidine]-1′-carboxylate]: 0.316 nM; `CS(=O)(=O)CCCn1c(CN2C(=O)C3(CCN(S(=O)(=O)c4ccc(C#N)cc4)CC3)c3ccccc32)nc2cc(Cl)ccc21` [Compound 18, 4-(1-((5-chloro-1-(3-(methylsulfonyl)propyl)-1H-benzo[d]-imidazol-2-yl)methyl)-2-oxospiro[indoline-3,4′-piperidine]-1′-ylsulfonyl) benzonitrile]: 1.26 nM; `CS(=O)(=O)CCCn1c(CN2C(=O)C3(CCOCC3)c3cc(F)ccc32)nc2cc(Cl)ccc21` [Compound 19]: 3.98 nM. `CS(=O)(=O)CCCn1c(CN2C(=O)C3(CCN(c4ccc(Cl)nn4)CC3)c3cc(Br)ccc32)nc2cc(Cl)ccc21` [Compound 20, 5-bromo-1-((5-chloro-1-(3-(methylsulfonyl)propyl)-1H-benzo[d]imidazol-2-yl)methyl)-1′-(6-chloropyridazin-3-yl)spiro[indoline-3,4′-piperidin]-2-one]: the EC50 under setting [1] is 3.98 nM.

In the case of `CS(=O)(=O)CCCn1c(CN2C(=O)C3(CCNCC3)c3ccccc32)nc2cc(Cl)ccc21` [Compound 21, 1-((5-chloro-1-(3-(methylsulfonyl)propyl)-1H-benzo[d]-imidazol-2-yl)methyl)spiro[indoline-3,4′-piperidin]-2-one], the EC50 under setting [1] is 5.01 nM. On the same count and under the same terms, next, `CS(=O)(=O)CCCn1c(CN2C(=O)C3(CCN(C(=O)c4ccncc4)CC3)c3cc(Br)ccc32)nc2cc(Cl)ccc21` [Compound 22, 5-bromo-1-((5-chloro-1-(3-(methylsulfonyl)propyl)-1H-benzo[d]imidazol-2-yl)methyl)-1′-isonicotinoylspiro-[indoline-3,4′-piperidin]-2-one]: 7.94 nM; `CC(C)(C)OC(=O)N1CCC2(CC1)C(=O)N(Cc1nc3cc(Cl)ccc3n1CCCS(C)(=O)=O)c1ccc(Br)cc12` [Compound 23, tert-butyl 5-bromo-1-((5-chloro-1-(3-(methyl-sulfonyl)propyl)-1H-benzo[d]imidazol-2-yl)methyl)-2-oxospiro[indoline-3,4′-piperidine]-1′-carboxylate]: 7.94 nM. Same read-out and setting: next, `CC(=O)N1CCC2(CC1)C(=O)N(Cc1nc3cc(Cl)ccc3n1CCCS(C)(=O)=O)c1ccc(Cl)cc12` [Compound 24, 1-acetyl-5-chloro-1-((5-chloro-1-(3-(methylsulfonyl)-propyl)-1H-benzo[d]imidazol-2-yl)methyl)spiro[indoline-3,4′-piperidin]-2-one]: 7.94 nM.

For the compound `CC(C)(O)CN1CCC2(CC1)C(=O)N(Cc1nc3cc(Cl)ccc3n1CCCS(C)(=O)=O)c1ccc(Cl)cc12` [Compound 25, 5-chloro-1-((5-chloro-1-(3-(methylsulfonyl)propyl)-1H-benzo[d]imidazol-2-yl)methyl)-1-(2-hydroxy-2-methylpropyl)spiro[indoline-3,4′-piperidin]-2-one], the EC50 under setting [1] was 31.6 nM. Same read-out and setting: the figure for `CS(=O)(=O)CCCn1c(CN2C(=O)C3(CCNCC3)c3c(Cl)cccc32)nc2cc(Cl)ccc21` [Compound 26, 4-chloro-1-({5-chloro-1-[3-(methylsulfonyl)propyl]-1H-benzimidazol-2-yl}methyl)spiro[indole-3,4′-piperidin]-2(1H)-one] is 316 nM; for `CS(=O)(=O)CCCn1c(CN2C(=O)C3(CN(S(=O)(=O)c4ccc(F)cc4)C3)c3ccccc32)nc2cc(Cl)ccc21` [Compound 33, 1′-({5-chloro-1-[3-(methylsulfonyl)propyl]-1H-benzimidazol-2-yl}methyl)-1-[(4-fluorophenyl)-sulfonyl]spiro[azetidine-3,3′-indol]-2′(1′H)-one] it is 0.158 nM; for `CS(=O)(=O)CCCn1c(CN2C(=O)C3(CCCC3)c3ccncc32)nc2cc(Cl)ccc21` [Compound 37, 1′-((5-chloro-1-(3-(methylsulfonyl)propyl)-1H-benzo[d]-imidazol-2-yl)methyl)spiro[cyclopentane-1,3′-pyrrolo[2,3-c]pyridin]-2′(1′H)-one] it is 0.1 nM.
